# Values quoted from earlier work, collected in US20260218090A1, “A LOW-TEMPERATURE, CAUSTIC DISHWARE […]” (priority 2023, published 2026).
# Where two headings read alike, the source gives them in different places.
# Tests used:
# A. niger = details: NaOH 0.5 M (20,000 ppm); 4 or 22 °C; detection limit less than 3 organisms/mL; cited from earlier work
# P. aeruginosa = details: NaOH 0.5 M (20,000 ppm); 22 °C; detection limit less than 3 organisms/mL; cited from earlier work
# C. albicans = details: NaOH 0.5 M (20,000 ppm); 4 or 22 °C; detection limit less than 3 organisms/mL; cited from earlier work
# E. coli = details: NaOH 0.01 M (400 ppm); 4 or 22 °C; detection limit less than 3 organisms/mL; cited from earlier work
# S. aureus = details: NaOH 0.1 M (4,000 ppm); 4 or 22 °C; detection limit less than 3 organisms/mL; cited from earlier work
# B. subtilis spores = details: NaOH 1.0 M (40,000 ppm), cited from earlier work
structure (smiles),measurement,setting,value
"[Na+].[OH-] [NaOH, sodium hydroxide]",Time for reduction of the organism below the detection limit,A. niger,1 h
same,Time for reduction of the organism below the detection limit,P. aeruginosa,1 h
same,Time for reduction of the organism below the detection limit,C. albicans,1 h
same,Time for reduction of the organism below the detection limit,E. coli,2 h
same,Time for reduction of the organism below the detection limit,S. aureus,1 h
same,Time for reduction of the organism below the detection limit,"B. subtilis spores; 4 °C, detection limit less than 100 organisms/mL",8 days
same,Time for reduction of the organism below the detection limit,"B. subtilis spores; 22 °C, detection limit 10 organisms/mL",2 days
